Laboratory results: patent publication US10899962B2, “Camera module, lubricant composition, and electronic device” (Samsung Electro-Mechanics Co., Ltd., priority 2018, dated 2021)

Test: solubility of the fluorinated fluorescent material at varied concentrations (FIG. 8, FIG. 11)
Type: physicochemical
Settings: concentrations shown 0.25 wt %, 0.5 wt %, and 1 wt %
Text: More specifically, when using a compound represented by Chemical Formula 1, for example, a compound represented by Chemical Formula 1-1 for the fluorinated fluorescent material, the fluorinated fluorescent material is included, for example, in an amount from 0.1 wt % to less than 0.5 wt %, or even, for example, in an amount from 0.1 wt % to 0.3 wt %. This can be confirmed from FIG. 8 to FIG. 10. […] Referring to the drawings, it can be seen that solubility issues occur in concentrations of 0.5 wt % or higher. FIG. 9 and FIG. 10 show the fluorescence of a lubricant composition containing 0.25 wt % of a compound represented by Chemical Formula 1-1. […] From the drawings, it can be seen that the presence of the lubricant can be easily detected after application of the lubricant composition.
Furthermore, when using a compound represented by Chemical Formula 2, for example, a compound represented by Chemical Formula 2-1 for the fluorinated fluorescent material, the fluorinated fluorescent material is included, for example, in an amount from 0.01 wt % to less than 1.0 wt %, or even included, for example, in an amount from 0.03 wt % to 0.15 wt %. This can be confirmed from FIG. 11. […] Referring to the drawing, it can be seen that solubility issues occur in concentrations of 1.0 wt % or higher.

In the case of `CCN(CC)c1ccc2c(C)cc(=O)oc2c1` [Chemical Formula 1-1], the “concentrations in which solubility issues occur” value is reported as ≥ 0.5 wt %.
